Read-outs that look alike come from different tables or passages of the source.
Key:
[1] = target: T1, human dihydroorotate dehydrogenase (HsDHODH) (Homo sapiens, UniProt Q02127); assay: Inhibition of recombinant human DHODH enzyme activity; type: biochemical; settings: for inhibition at 1 µM: at 1,000 nM, read-out: Inhibition of HsDHODH activity (value in parentheses); for IC50: recombinant human DHODH
T1 construct: made in house

Complex II = target: T2, Complex II (Bos taurus, UniProt P35720+Q3T189+Q95123); assay: Succinate:quinone reductase (complex II) activity, bovine mitochondria; type: biochemical
T2 construct: from tissue; host or cells: bovine mitochondrial fraction / sub-mitochondrial particles

Complexes I–III = assay: NADH-cytochrome c reductase (complexes I–III) activity, bovine mitochondria; type: biochemical
Protocol: (§1) Recombinant human DHODH was purified, crystallized, and assayed as previously described ([Inaoka et al., 2016]) without modification. Bovine mitochondrial fractions were prepared as previously described ([Kita et al., 1988]) and NADH dehydrogenase (complex I), succinate:quinone reductase (complex II), quinol oxidase (complexes III–IV), NADH-cytochrome c reductase (complexes I–III), and succinate-cytochrome c (complexes II–III) activities were assayed following an established method ([Takamiya et al., 1986]; [Miyadera et al., 2001]; [Matsumoto et al., 2008]; [Kido et al., 2010]; [Nihashi et al., 2017]).

Complex III = target: T3, Complex III (Bos taurus, UniProt P00157); assay: Quinol oxidase (complex III) activity, bovine mitochondria; type: biochemical; settings: ubiquinol oxidase activity
T3 construct: from tissue; host or cells: bovine mitochondrial fraction / sub-mitochondrial particles

Complex I = assay: NADH dehydrogenase (complex I) activity, bovine mitochondria; type: biochemical; settings: at 5 μM
Protocol: as §1

Complex II–III = assay: Succinate-cytochrome c reductase (complexes II–III) activity, bovine mitochondria; type: biochemical
Protocol: as §1

OVCAR-8 = assay: 39-cancer cell panel assay: OVCAR-8; type: cell-based; settings: Homo sapiens, Ov
KM-12 = assay: 39-cancer cell panel assay: KM-12; type: cell-based, human; settings: Co
NCI-H23 = assay: 39-cancer cell panel assay: NCI-H23; type: cell-based; settings: Homo sapiens, Lu
OVCAR-5 = assay: 39-cancer cell panel assay: OVCAR-5; type: cell-based; settings: Homo sapiens, Ov
MKN28 = assay: 39-cancer cell panel assay: MKN28; type: cell-based; settings: Homo sapiens, MKN-28, St
SNB-78 = assay: 39-cancer cell panel assay: SNB-78; type: cell-based; settings: Homo sapiens, CNS
ACHN = assay: 39-cancer cell panel assay: ACHN; type: cell-based; settings: Homo sapiens, Re
MKN7 = assay: 39-cancer cell panel assay: MKN7; type: cell-based; settings: Homo sapiens, MKN-7, St
RXF-631L = assay: 39-cancer cell panel assay: RXF-631L; type: cell-based; settings: Homo sapiens, Re
U251 = assay: 39-cancer cell panel assay: U251; type: cell-based; settings: Homo sapiens, U-251, CNS
HT-29 = assay: 39-cancer cell panel assay: HT-29; type: cell-based; settings: Homo sapiens, Co
BSY-1 = assay: 39-cancer cell panel assay: BSY-1; type: cell-based; settings: Homo sapiens, Br
HBC-4 = assay: 39-cancer cell panel assay: HBC-4; type: cell-based; settings: Homo sapiens, HBC4, Br
LOX-IMVI = assay: 39-cancer cell panel assay: LOX-IMVI; type: cell-based; settings: Homo sapiens, Me
DMS114 = assay: 39-cancer cell panel assay: DMS114; type: cell-based; settings: Homo sapiens, DMS-114, Lu
NCI-H460 = assay: 39-cancer cell panel assay: NCI-H460; type: cell-based; settings: Homo sapiens, Lu
HCT-116 = assay: 39-cancer cell panel assay: HCT-116; type: cell-based; settings: Homo sapiens, Co
SNB-75 = assay: 39-cancer cell panel assay: SNB-75; type: cell-based; settings: Homo sapiens, CNS
SF-268 = assay: 39-cancer cell panel assay: SF-268; type: cell-based; settings: Homo sapiens, CNS
SK-OV-3 = assay: 39-cancer cell panel assay: SK-OV-3; type: cell-based; settings: Homo sapiens
OVCAR-4 = assay: 39-cancer cell panel assay: OVCAR-4; type: cell-based; settings: Homo sapiens, Ov
HBC-5 = assay: 39-cancer cell panel assay: HBC-5; type: cell-based; settings: Homo sapiens, HBC5, Br
DMS273 = assay: 39-cancer cell panel assay: DMS273; type: cell-based; settings: Homo sapiens, DMS-273, Lu
MCF-7 = assay: 39-cancer cell panel assay: MCF-7; type: cell-based; settings: Homo sapiens, MCF7, Br
MKN74 = assay: 39-cancer cell panel assay: MKN74; type: cell-based; settings: Homo sapiens, MKN-74, St
MDA-MB-231 = assay: 39-cancer cell panel assay: MDA-MB-231; type: cell-based; settings: Homo sapiens, Br
NCI-H522 = assay: 39-cancer cell panel assay: NCI-H522; type: cell-based; settings: Homo sapiens, Lu
PC-3 = assay: 39-cancer cell panel assay: PC-3; type: cell-based; settings: Homo sapiens, Pro
HCC2998 = assay: 39-cancer cell panel assay: HCC2998; type: cell-based; settings: Homo sapiens, HCC 2998, Co
SF-295 = assay: 39-cancer cell panel assay: SF-295; type: cell-based; settings: Homo sapiens, CNS
A549 = assay: 39-cancer cell panel assay: A549; type: cell-based; settings: Homo sapiens, Lu
St-4 = assay: 39-cancer cell panel assay: St-4; type: cell-based; settings: Homo sapiens
MKN1 = assay: 39-cancer cell panel assay: MKN1; type: cell-based; settings: Homo sapiens, MKN-1, St
HCT-15 = assay: 39-cancer cell panel assay: HCT-15; type: cell-based; settings: Homo sapiens, Co
MKN45 = assay: 39-cancer cell panel assay: MKN45; type: cell-based; settings: Homo sapiens, MKN-45, St
OVCAR-3 = assay: 39-cancer cell panel assay: OVCAR-3; type: cell-based; settings: Homo sapiens, Ov
DU-145 = assay: 39-cancer cell panel assay: DU-145; type: cell-based; settings: Homo sapiens, Pro
SF-539 = assay: 39-cancer cell panel assay: SF-539; type: cell-based; settings: Homo sapiens, CNS
NCI-H226 = assay: 39-cancer cell panel assay: NCI-H226; type: cell-based; settings: Homo sapiens, Lu
[2] = purified enzyme fixed at 10 nM, read-out: IC50 (nM), inhibition of human DHODH

T1 sequence (Q02127 whole entry): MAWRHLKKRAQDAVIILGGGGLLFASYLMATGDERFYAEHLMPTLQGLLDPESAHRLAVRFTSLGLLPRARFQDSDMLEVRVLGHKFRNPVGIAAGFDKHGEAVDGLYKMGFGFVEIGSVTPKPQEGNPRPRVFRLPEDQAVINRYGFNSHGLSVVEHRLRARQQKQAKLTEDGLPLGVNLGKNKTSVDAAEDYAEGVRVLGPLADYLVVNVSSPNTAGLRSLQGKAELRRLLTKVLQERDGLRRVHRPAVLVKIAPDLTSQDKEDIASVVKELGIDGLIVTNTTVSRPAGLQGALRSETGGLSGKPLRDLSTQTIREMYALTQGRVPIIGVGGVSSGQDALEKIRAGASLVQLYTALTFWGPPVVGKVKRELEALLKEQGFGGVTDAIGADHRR
T2 sequence (P31039 45-665 partner limits assumed): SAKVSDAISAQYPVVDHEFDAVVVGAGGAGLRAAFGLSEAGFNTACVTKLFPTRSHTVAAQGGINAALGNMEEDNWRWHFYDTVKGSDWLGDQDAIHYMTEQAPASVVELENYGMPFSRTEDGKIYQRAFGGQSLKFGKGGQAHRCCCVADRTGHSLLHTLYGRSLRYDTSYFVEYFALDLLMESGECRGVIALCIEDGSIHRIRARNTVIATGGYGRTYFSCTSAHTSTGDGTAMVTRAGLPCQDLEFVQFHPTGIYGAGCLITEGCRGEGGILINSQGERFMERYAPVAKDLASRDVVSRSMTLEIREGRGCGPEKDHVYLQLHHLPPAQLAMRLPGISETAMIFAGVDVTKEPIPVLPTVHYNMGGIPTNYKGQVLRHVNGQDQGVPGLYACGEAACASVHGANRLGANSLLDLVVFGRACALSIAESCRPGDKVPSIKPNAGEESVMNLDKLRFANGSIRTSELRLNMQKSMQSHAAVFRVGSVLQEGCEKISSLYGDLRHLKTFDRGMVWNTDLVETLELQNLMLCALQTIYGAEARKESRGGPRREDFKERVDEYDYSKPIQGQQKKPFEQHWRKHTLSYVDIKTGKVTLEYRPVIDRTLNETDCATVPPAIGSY
T2 sequence (Q3T189 29-280): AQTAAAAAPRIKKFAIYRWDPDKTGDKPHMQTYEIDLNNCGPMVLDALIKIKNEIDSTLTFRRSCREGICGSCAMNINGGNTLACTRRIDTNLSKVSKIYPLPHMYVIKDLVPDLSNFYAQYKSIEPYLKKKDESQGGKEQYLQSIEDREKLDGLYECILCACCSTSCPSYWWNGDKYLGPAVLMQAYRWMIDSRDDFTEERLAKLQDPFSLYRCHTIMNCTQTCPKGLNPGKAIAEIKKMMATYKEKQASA
T2 sequence (P35720 30-169): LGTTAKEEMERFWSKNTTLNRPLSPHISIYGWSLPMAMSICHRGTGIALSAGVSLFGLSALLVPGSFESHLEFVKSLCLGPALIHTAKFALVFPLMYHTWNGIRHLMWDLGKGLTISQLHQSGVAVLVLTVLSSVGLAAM
T2 sequence (Q95123 56-158): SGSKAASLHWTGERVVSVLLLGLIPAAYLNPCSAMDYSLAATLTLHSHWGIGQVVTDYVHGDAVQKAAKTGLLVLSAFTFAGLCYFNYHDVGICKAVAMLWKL

## CC(C)=CCC/C(C)=C/Cc1c(O)c(Cl)cc(C=O)c1O [Compound 24]
[1]; HsDHODH IC50 versus compound 3
  fold increase in the IC50 in comparison to 3: > 13 fold
[1]
  inhibition at 1 µM: 36%
[1]; [2]
  IC50: > 1000 nM

## COc1[nH]c(=O)c(C(=O)[C@@H](C)C[C@H](C)[C@@H](Cl)CCl)c(O)c1OC [Atpenin A5, reference compound]
Complex II
  inhibition at 5 µM: 97 ± 1%
Complexes I–III
  IC50: 2.8 ± 0.44 µM
Complex III
  inhibition at 5 µM: 0%
[1]; IC50 (μM) HsDHODH, Table 6
  IC50: > 10000 nM
Complex I
  Inhibition (%) Complex I: 10 ± 2.7%
Complex II–III
  IC50: 0.0063 ± 0.0002 µM

## C=C(C)[C@H]1Cc2c(ccc3c2O[C@@H]2COc4cc(OC)c(OC)cc4[C@@H]2C3=O)O1 [Rotenone, reference compound]
Complex II
  inhibition at 5 µM: 6.4 ± 7.9%
Complexes I–III
  IC50: 0.0063 ± 0.0001 µM
Complex III
  inhibition at 5 µM: 1.1 ± 2.8%
[1]; IC50 (μM) HsDHODH, Table 6
  IC50: > 10000 nM
Complex I
  Inhibition (%) Complex I: 94 ± 1.5%
Complex II–III
  IC50: > 10 µM

## COc1c(Cl)c(C)c(C=O)c(O)c1C/C=C(\C)CC/C=C(\C)[C@@H]1CC(=O)C(C)(C)O1 [Compound 21]
[1]
  inhibition at 1 µM: 3%
[1]; [2]
  IC50: > 1000 nM

## C/C(=C\COC(=O)C(C)C)CC/C(C)=C/Cc1c(O)c(Cl)c(C)c(C=O)c1O [Compound 12]
OVCAR-8
  GI50: 9.4 µM
KM-12
  GI50 (μM) KM-12: 10.0 µM
NCI-H23
  GI50: 13 µM
OVCAR-5
  GI50: 22 µM
MKN28
  GI50: 13 µM
SNB-78
  GI50: 28 µM
ACHN
  GI50: 16 µM
MKN7
  GI50: 16 µM
RXF-631L
  GI50: 16 µM
U251
  GI50: 4.9 µM
HT-29
  GI50: 5.8 µM
BSY-1
  GI50: 16 µM
HBC-4
  GI50: 9.4 µM
LOX-IMVI
  GI50: 3.4 µM
DMS114
  GI50: 12 µM
NCI-H460
  GI50: 4.5 µM
HCT-116
  GI50: 4.6 µM
SNB-75
  GI50: 28 µM
SF-268
  GI50: 9.5 µM
SK-OV-3
  GI50: 49 µM
OVCAR-4
  GI50: 19 µM
HBC-5
  GI50: 18 µM
DMS273
  GI50: 3.6 µM
MCF-7
  GI50: 6.7 µM
MKN74
  GI50: 11 µM
MDA-MB-231
  GI50: 10 µM
NCI-H522
  GI50: 4.2 µM
PC-3
  GI50: 13 µM
HCC2998
  GI50: 16 µM
SF-295
  GI50: 16 µM
A549
  GI50: 7.1 µM
St-4
  GI50: 17 µM
MKN1
  GI50: 12 µM
HCT-15
  GI50: 1.9 µM
MKN45
  GI50: 24 µM
OVCAR-3
  GI50: 7.1 µM
DU-145
  GI50: 23 µM
SF-539
  GI50: 2.2 µM
NCI-H226
  GI50: 8 µM

## C/C(=C\COC(=O)C(C)(C)C)CC/C(C)=C/Cc1c(O)c(Cl)c(C)c(C=O)c1O [Compound 11]
[1]; [2]
  IC50: 67.2 ± 2.8 nM

## C/C(=C\Cc1c(O)c(Cl)c(C)c(CO)c1O)CC/C=C(\C)COC(=O)C(C)(C)C [Compound 20]
[1]; [2]
  IC50: 3530 nM

## C/C(=C\CC/C=C/Cc1c(O)c(Cl)c(C)c(C=O)c1O)COC(=O)C(C)(C)C [Compound 13]
[1]; HsDHODH IC50 versus compound 4
  fold decrease (IC50 compared to 4): about 3.5 fold
[1]; [2]
  IC50: 349 ± 96 nM

## C/C(=C\Cc1c(O)c(Cl)c(C)c(C=O)c1O)CC/C=C(\C)C(C)O (stereo not shown) [Compound 6]
OVCAR-8
  GI50: 25 µM
KM-12
  GI50 (μM) KM-12: 32.0 µM
NCI-H23
  GI50: 39 µM
OVCAR-5
  GI50: 58 µM
MKN28
  GI50: 36 µM
SNB-78
  GI50: 43 µM
ACHN
  GI50: 22 µM
MKN7
  GI50: 36 µM
RXF-631L
  GI50: 45 µM
U251
  GI50: 5.1 µM
HT-29
  GI50: 39 µM
BSY-1
  GI50: 59 µM
HBC-4
  GI50: 37 µM
LOX-IMVI
  GI50: 13 µM
DMS114
  GI50: 35 µM
NCI-H460
  GI50: 12 µM
HCT-116
  GI50: 14 µM
SNB-75
  GI50: 59 µM
[1]; [2]
  IC50: 63.9 ± 11 nM
SF-268
  GI50: 12 µM
SK-OV-3
  GI50: 27 µM
OVCAR-4
  GI50: 39 µM
HBC-5
  GI50: 61 µM
DMS273
  GI50: 18 µM
MCF-7
  GI50: 36 µM
MKN74
  GI50: 26 µM
MDA-MB-231
  GI50: 36 µM
NCI-H522
  GI50: 22 µM
PC-3
  GI50: 22 µM
HCC2998
  GI50: 43 µM
SF-295
  GI50: 16 µM
A549
  GI50: 37 µM
St-4
  GI50: 44 µM
MKN1
  GI50: 44 µM
HCT-15
  GI50: 6.2 µM
MKN45
  GI50: 65 µM
OVCAR-3
  GI50: 27 µM
DU-145
  GI50: 25 µM
SF-539
  GI50: 5.3 µM
NCI-H226
  GI50: 24 µM

— publication PMC6131557, “Selective Cytotoxicity of Dihydroorotate Dehydrogenase Inhibitors to Human Cancer Cells Under Hypoxia and Nutrient-Deprived Conditions” (Frontiers in Pharmacology, 2018)
